The target of assay [1] is T1, ERα (estrogen receptor α) (Homo sapiens, UniProt P03372).
T1 construct: gene ESR1
T1 sequence (P03372 1-595): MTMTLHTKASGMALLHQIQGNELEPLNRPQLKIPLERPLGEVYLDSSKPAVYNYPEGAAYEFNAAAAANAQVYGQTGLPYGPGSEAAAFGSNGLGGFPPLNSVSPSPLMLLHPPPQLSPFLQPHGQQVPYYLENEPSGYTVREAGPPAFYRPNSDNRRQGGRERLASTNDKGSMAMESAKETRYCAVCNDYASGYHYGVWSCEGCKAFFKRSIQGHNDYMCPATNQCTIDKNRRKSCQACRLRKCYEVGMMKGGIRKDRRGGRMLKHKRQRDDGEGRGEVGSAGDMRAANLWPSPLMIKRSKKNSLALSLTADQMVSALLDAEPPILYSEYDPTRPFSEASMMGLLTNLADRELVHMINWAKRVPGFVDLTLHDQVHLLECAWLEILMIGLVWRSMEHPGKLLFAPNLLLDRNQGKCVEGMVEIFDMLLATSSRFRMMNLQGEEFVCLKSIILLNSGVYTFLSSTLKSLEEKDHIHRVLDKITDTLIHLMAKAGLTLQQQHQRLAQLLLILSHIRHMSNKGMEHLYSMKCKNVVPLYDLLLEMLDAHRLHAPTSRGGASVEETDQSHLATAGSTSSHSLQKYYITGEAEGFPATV
Briefly: competitive [3H]-17β-estradiol radioligand binding, in vitro translated receptor (TNT reticulocyte lysate).

Assay [2] has as its target T2, ERβ (estrogen receptor β) (Homo sapiens, UniProt Q92731).
T2 construct: gene ESR2
Described as above.

T2 sequence (Q92731 whole entry): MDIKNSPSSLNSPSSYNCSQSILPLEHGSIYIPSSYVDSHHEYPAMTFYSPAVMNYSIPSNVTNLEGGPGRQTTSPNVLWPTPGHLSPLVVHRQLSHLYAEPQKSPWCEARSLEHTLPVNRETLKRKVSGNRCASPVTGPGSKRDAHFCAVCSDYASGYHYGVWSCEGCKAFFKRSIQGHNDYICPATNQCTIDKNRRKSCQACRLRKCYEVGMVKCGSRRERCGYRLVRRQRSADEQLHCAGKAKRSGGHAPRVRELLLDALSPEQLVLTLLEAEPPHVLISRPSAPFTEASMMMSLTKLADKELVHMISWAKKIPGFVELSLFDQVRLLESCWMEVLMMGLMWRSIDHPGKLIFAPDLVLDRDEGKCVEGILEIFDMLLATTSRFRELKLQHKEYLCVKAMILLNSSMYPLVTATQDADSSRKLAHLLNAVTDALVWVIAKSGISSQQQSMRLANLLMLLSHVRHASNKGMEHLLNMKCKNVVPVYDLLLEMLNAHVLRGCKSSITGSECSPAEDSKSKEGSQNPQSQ

What is called IC50 is the concentration needed to halve the response being measured. A low value points to greater potency in that assay. As for bonediol, the IC50 in assay [1] worked out at 2500 nM; in assay [2] it was 2100 nM.

The record behind these values is paper PMC4628711, “Antiproliferative and Antiestrogenic Activities of Bonediol an Alkyl Catechol from Bonellia macrocarpa” (BioMed Research International, 2015).
